The results in this text go back to PubChem BioAssay (NCI).

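All cell lines were grown in 96-well plates and treated with compound for 48 hours. TGI is the concentration that stops growth completely.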

Among the test systems are SK-MEL-28 melanoma; IGROV1 ovarian; EKVX NSCLC; SF-539 CNS; COLO 205 colon; NCI/ADR-RES ovarian; SF-268 CNS; SN12C renal; DU-145 prostate; CCRF-CEM leukemia; HT29 colon; HCT-116 colon; OVCAR-5 ovarian; HOP-62 NSCLC; ACHN renal; UO-31 renal; U251 CNS; HOP-92 NSCLC; HCC-2998 colon.
What all share (test): inhibition of tumour cell growth, NCI panel, 48 h

Take `COc1ccc(NS(=O)c2ccccc2OC)cc1` (stereo unspecified): the TGI was more than 100 µM with SK-MEL-28 melanoma; more than 100 µM with IGROV1 ovarian; more than 100 µM in the assay on EKVX NSCLC; 35.9 µM in the assay with SF-539 CNS; 48.6 µM in the assay on COLO 205 colon; more than 100 µM with NCI/ADR-RES ovarian. Besides, the TGI in the assay on SF-268 CNS is 39.6 µM; in the assay with SN12C renal, more than 100 µM; in the assay on DU-145 prostate, more than 100 µM; in the assay on CCRF-CEM leukemia it was more than 100 µM; in the assay with HT29 colon, more than 100 µM; in the assay with HCT-116 colon it was more than 100 µM. Further, the TGI is more than 100 µM in the assay with OVCAR-5 ovarian; more than 100 µM with HOP-62 NSCLC; more than 100 µM in the assay with ACHN renal; 28.2 µM in the assay with UO-31 renal; 67.2 µM in the assay on U251 CNS.
As to `CC(C)(Oc1ccc2c(=O)cc(-c3ccccc3)oc2c1)C(=O)Nc1c(Cl)cccc1Cl`, the TGI in the assay with SK-MEL-28 melanoma, with IGROV1 ovarian, in the assay with EKVX NSCLC, with SF-539 CNS, in the assay on HOP-92 NSCLC and with SF-268 CNS was more than 100 µM throughout. The TGI in the assay on CCRF-CEM leukemia, with HT29 colon, in the assay with HCT-116 colon, in the assay on OVCAR-5 ovarian, with HOP-62 NSCLC and in the assay with UO-31 renal was more than 100 µM in each case. Also, in the assay on U251 CNS, the TGI is more than 100 µM.
Turning to `CC(=O)NC(CCCNC(=O)NCCCl)C(=O)NCc1ccccc1` (stereo unspecified), the TGI in the assay with SK-MEL-28 melanoma, in the assay with EKVX NSCLC, with SF-539 CNS, with HOP-92 NSCLC, in the assay on COLO 205 colon and in the assay on SF-268 CNS was more than 100 µM in each case. In addition, the TGI in the assay with SN12C renal, in the assay on HCC-2998 colon, with CCRF-CEM leukemia, with HT29 colon, in the assay on HCT-116 colon and in the assay with HOP-62 NSCLC was more than 100 µM each time. Moreover, the TGI in the assay on ACHN renal, with UO-31 renal and in the assay with U251 CNS was more than 100 µM throughout.
Take `Cn1c2ccccc2c2nc3ccccc3c(Cl)c21`: the TGI in the assay on SK-MEL-28 melanoma, with IGROV1 ovarian, in the assay with SF-539 CNS, in the assay on COLO 205 colon, in the assay on NCI/ADR-RES ovarian and with SF-268 CNS was more than 100 µM in each case. The TGI with SN12C renal, in the assay with DU-145 prostate, in the assay with CCRF-CEM leukemia, in the assay with HT29 colon, in the assay with HCT-116 colon and with OVCAR-5 ovarian was more than 100 µM each time. For the same compound, the TGI in the assay on HOP-62 NSCLC and with U251 CNS was more than 100 µM each time.
With `CCOP(=O)(OCC)[C@]12C[C@@H](C)C=C[C@H]1COC2=O`, the TGI with SK-MEL-28 melanoma, in the assay with EKVX NSCLC, in the assay on SF-539 CNS, with COLO 205 colon, in the assay with SF-268 CNS and in the assay on SN12C renal was more than 100 µM throughout. Besides, the TGI in the assay on HCC-2998 colon, with DU-145 prostate, with CCRF-CEM leukemia, in the assay with HCT-116 colon, in the assay on OVCAR-5 ovarian and in the assay with HOP-62 NSCLC was more than 100 µM throughout. Besides, the TGI with ACHN renal, in the assay on UO-31 renal and in the assay on U251 CNS was more than 100 µM each time.
On to `Cc1cc(=O)oc2c3c(ccc12)OC(c1ccc(Br)cc1)CC3=O` (stereo unspecified), for which the TGI was 21.3 µM in the assay with SK-MEL-28 melanoma; 32.5 µM with IGROV1 ovarian; 31.8 µM in the assay on EKVX NSCLC; 27.1 µM in the assay with SF-539 CNS; 30.5 µM in the assay on COLO 205 colon; more than 100 µM in the assay with NCI/ADR-RES ovarian. Moreover, the TGI in the assay on SF-268 CNS is 32.1 µM; in the assay with SN12C renal, more than 100 µM; in the assay with HCC-2998 colon, 59.2 µM; with CCRF-CEM leukemia, 9.11 µM; with HT29 colon, 32 µM; in the assay with HCT-116 colon, 23.8 µM. In addition, the TGI with OVCAR-5 ovarian came to 31.4 µM; in the assay with HOP-62 NSCLC, 21.8 µM; with ACHN renal, 29.4 µM; with UO-31 renal it was 21.9 µM; in the assay on U251 CNS, 18.3 µM.
Turning to `O=C(Cn1c2ccc(Br)cc2c2nc3ccccc3nc21)N/N=C/c1ccccc1`, the TGI was more than 100 µM in the assay with SK-MEL-28 melanoma; more than 100 µM in the assay with IGROV1 ovarian; more than 100 µM in the assay with EKVX NSCLC; 53.6 µM in the assay on SF-539 CNS; more than 100 µM with COLO 205 colon; more than 100 µM with NCI/ADR-RES ovarian. The TGI is more than 100 µM in the assay on SF-268 CNS; more than 100 µM in the assay on SN12C renal; more than 100 µM in the assay on DU-145 prostate; more than 100 µM with HT29 colon; more than 100 µM in the assay with OVCAR-5 ovarian; 97.9 µM with HOP-62 NSCLC. Moreover, the TGI in the assay on ACHN renal, with UO-31 renal and in the assay with U251 CNS was more than 100 µM in each case.
